Experimental data published in patent US12589143B2, “Human anti-PD-L1 peptide vaccines and methods of their use” (priority 2019, dated 2026).
Where “and” joins values, the source holds several entries; their conditions need not be identical. Equal entries are not always repeated. Where no end group is shown, it is not given here.

Tested on: MVF-PD-L1 peptide immunogen
Test: Immunogenicity in Balb/c mice, experiment 1 (CT26 WT): ELISA of sera vs each MVF-PD-L1 peptide immunogen
Format: in vivo
Conditions: for Immunogenicity (titers) 1′ Conc. 1:: Balb/c mice
Experimental: Immunogenicity of MVF-PD-L1 B-cell epitopes. New Zealand White rabbits were immunized with 1 mg of each MVF-peptide immunogens dissolved in dd H2O emulsified (1:1) in Montanide ISA 720 vehicle (Seppic) with 333 μg of N-acetylglucosamine-3yl-acetyl-1-alanyl-d-isoglutamine (nor-MDP). Rabbits were boosted with the same doses at 3-week's intervals. Blood was collected via the central auricular artery in rabbits. Blood was collected weekly (1Y+3, 2Y+1, 2Y+2,2Y+3, 3Y+1, 3Y+2 and sera tested for antibody titers by ELISA using the immunogens MVF-PD-L1 peptides. Sera (terminal) from rabbit (3Y+3) immunized with MVF-PD-1 peptide immunogens were tested individually versus the immunogen by ELISA. 200 ng/well peptide were used in duplicates to coat the ELISA plates. Titers are defined as the highest dilution of sera with an absorbance value of 0.2 after subtracting the blank.
FIGS. 5A, 5B, 5C, and 5D show the experimental scheme to test the immunization with PD-L1 in Balb/c mice. […] Balb/c mice 6-8 weeks old, were immunized with MVF-peptide immunogens emulsified in ISA 720 with nor-MDP three times and three weeks apart. Mice were immunized with MVF-PD-L1 vaccine constructs [PD-L1(36-53), PD-L1(50-67), PD-L1(95-112), PD-L1(130-147)] prior to tumor challenge. Blood was collected weekly and sera tested for antibody titers by ELISA. Two weeks after the third immunization (3Y), the mice were engrafted with CT26 WT tumor cells 10^5 per mouse Control mice were treated twice weekly with PBS as negative control and twice weekly with anti-mPD-L1 mAb (10F.9G2) as positive control starting 2 days after tumor challenge. Tumor growths were observed twice weekly and measured by calipers.
Immunogenicity of MVF-PD-L1 peptides in BALB/c mice immunized with various peptide constructs. Sera collected weekly were tittered against each individual MVF-PD-L1 peptide immunogen. The Pink bar refers to titers versus PD-L1 130 and the red bar refers to titers versus PD-1 (92-110).
In order to verify the efficacy of the PD-L1 epitope vaccines in vivo in the CT26 carcinoma cell line, Balb/c mice (10 mice/group) were immunized with 100 μg each of MVF-PD-L1 (36-53), MVF-PD-L1 (50-67), MVF-PD-L1 (95-112) and MVF-PD-L1 (130-147) emulsified with nor-MDP and Montanide 720 (1:1 ratio) SCHEME 1A (FIG. 5A). As detailed in SCHEME 1A-D (FIGS. 5A, 5B, 5C, and 5D), mice were immunized 3 times at 3 weeks intervals. […] All PD-L1 epitopes elicited high titers of PD-L1 anti-peptide antibodies by ELISA. […] We also investigated the combination of PD-1(92-110) with PD-L1-130-147.
For each peptide, vaccine antibodies were raised in New Zealand white rabbits, purchased from Charles River Laboratories (Wilmington, MA, USA). Rabbits were immunized with 1 mg of MVF chimeric peptide emulsified in Montanide ISA 720 (Seppic, Paris, France) and boosted 3 times at three week intervals. For mouse experiments, mice, 6-8 weeks old, were immunized with 0.1 mg of peptide emulsified in ISA720 (1:1 ratio). Mice were boosted with the respective doses at 3-week intervals. Blood was then collected and sera were tested for antibody titers. Sera were collected weekly and peptide vaccine antibodies were purified by affinity chromatography using a protein A/G column and the concentration was measured using Spectrophometer. All experiments were performed in accordance with the U.S. Public Health Service Policy on Humane Care and Use of Laboratory animals and approved by the Ohio State University Institutional Animals Care and Use Committee, detailed in the accepted protocol.
6-8 weeks old BALB/c mice (Charles River, Wilmington, MA) were used as standard animal models. Mouse CT26 colon carcinoma cell line was purchased from American Type Culture Collection Cells and were regularly cultured in RPMI1640 medium containing 10% FBS. CT26/HER2 cells were kindly provided by M. Penichet. Vaccines were dissolved in sterile water and emulsified in Montanide ISA 720 (1:1). […]

## KLLSLIKGVIVHRLEGVEGPSLFVHGEEDLKVQHSSYRQR (KLLSLIKGVIVHRLEGVEGPSLFVHGEEDLKVQHSSYRQR-NH2) [PD-L1(50)]
Bleed 1Y + 3
  Immunogenicity (titers) 1′ Conc. 1:: 6400
Bleed 2Y + 1
  Immunogenicity (titers) 1′ Conc. 1:: 12800
Bleed 2Y + 2
  Immunogenicity (titers) 1′ Conc. 1:: 12800
Bleed 2Y + 3
  Immunogenicity (titers) 1′ Conc. 1:: 12800
Bleed 3Y + 1
  Immunogenicity (titers) 1′ Conc. 1:: 128000
Bleed 3Y + 2
  Immunogenicity (titers) 1′ Conc. 1:: 128000
Bleed 3Y + 3
  Immunogenicity (titers) 1′ Conc. 1:: 128000
Bleed 1Y + 3 (1to100), dilution 100, bleed 1Y + 3
  ELISA absorbance of sera: 1.459 and 1.424
Bleed 1Y + 3 (1to100), dilution 200, bleed 1Y + 3
  ELISA absorbance of sera: 1.338 and 1.282
Bleed 1Y + 3 (1to100), dilution 400, bleed 1Y + 3
  ELISA absorbance of sera: 1.131 and 1.099
Bleed 1Y + 3 (1to100), dilution 800, bleed 1Y + 3
  ELISA absorbance of sera: 0.878 and 0.852
Bleed 1Y + 3 (1to100), dilution 1,600, bleed 1Y + 3
  ELISA absorbance of sera: 0.639 and 0.588
Bleed 1Y + 3 (1to100), dilution 3,200, bleed 1Y + 3
  ELISA absorbance of sera: 0.398 and 0.365
Bleed 1Y + 3 (1to100), dilution 6,400, bleed 1Y + 3
  ELISA absorbance of sera: 0.239 and 0.213
Bleed 1Y + 3 (1to100), dilution 12,800, bleed 1Y + 3
  ELISA absorbance of sera: 0.143 and 0.129
Bleed 2Y + 1 (1to100), dilution 100, bleed 2Y + 1
  ELISA absorbance of sera: 1.243 and 1.292
Bleed 2Y + 1 (1to100), dilution 200, bleed 2Y + 1
  ELISA absorbance of sera: 1.279 and 1.274
Bleed 2Y + 1 (1to100), dilution 400, bleed 2Y + 1
  ELISA absorbance of sera: 1.241 and 1.170
Bleed 2Y + 1 (1to100), dilution 800, bleed 2Y + 1
  ELISA absorbance of sera: 1.127 and 1.002
Bleed 2Y + 1 (1to100), dilution 1,600, bleed 2Y + 1
  ELISA absorbance of sera: 0.923 and 0.887
Bleed 2Y + 1 (1to100), dilution 3,200, bleed 2Y + 1
  ELISA absorbance of sera: 0.721 and 0.666
Bleed 2Y + 1 (1to100), dilution 6,400, bleed 2Y + 1
  ELISA absorbance of sera: 0.480 and 0.471
Bleed 2Y + 1 (1to100), dilution 12,800, bleed 2Y + 1
  ELISA absorbance of sera: 0.332 and 0.274
Bleed 2Y + 2 (1to100), dilution 100
  ELISA absorbance of sera: 1.298 and 1.343
Bleed 2Y + 2 (1to100), dilution 200
  ELISA absorbance of sera: 1.310 and 1.286
Bleed 2Y + 2 (1to100), dilution 400
  ELISA absorbance of sera: 1.241 and 1.190
Bleed 2Y + 2 (1to100), dilution 800
  ELISA absorbance of sera: 1.144 and 1.093
Bleed 2Y + 2 (1to100), dilution 1,600
  ELISA absorbance of sera: 0.964 and 0.893
Bleed 2Y + 2 (1to100), dilution 3,200
  ELISA absorbance of sera: 0.741 and 0.670
Bleed 2Y + 2 (1to100), dilution 6,400
  ELISA absorbance of sera: 0.519 and 0.487
Bleed 2Y + 3 (1to1k), dilution 100
  ELISA absorbance of sera: 1.054 and 1.076
Bleed 2Y + 3 (1to1k), dilution 200
  ELISA absorbance of sera: 1.008 and 1.012
Bleed 2Y + 3 (1to1k), dilution 400
  ELISA absorbance of sera: 0.952 and 0.915
Bleed 2Y + 3 (1to1k), dilution 800
  ELISA absorbance of sera: 0.827 and 0.819
Bleed 2Y + 3 (1to1k), dilution 1,600
  ELISA absorbance of sera: 0.708 and 0.703
Bleed 2Y + 3 (1to1k), dilution 3,200
  ELISA absorbance of sera: 0.534 and 0.514
Bleed 2Y + 3 (1to1k), dilution 6,400
  ELISA absorbance of sera: 0.351 and 0.332
Bleed 3Y + 1 (1to1k), dilution 100, bleed 3Y + 1
  ELISA absorbance of sera: 1.191 and 1.215
Bleed 3Y + 1 (1to1k), dilution 200, bleed 3Y + 1
  ELISA absorbance of sera: 1.138 and 1.143
Bleed 3Y + 1 (1to1k), dilution 400, bleed 3Y + 1
  ELISA absorbance of sera: 1.076 and 1.034
Bleed 3Y + 1 (1to1k), dilution 800, bleed 3Y + 1
  ELISA absorbance of sera: 0.935 and 0.925
Bleed 3Y + 1 (1to1k), dilution 1,600, bleed 3Y + 1
  ELISA absorbance of sera: 0.800 and 0.794
Bleed 3Y + 1 (1to1k), dilution 3,200, bleed 3Y + 1
  ELISA absorbance of sera: 0.603 and 0.581
Bleed 3Y + 1 (1to1k), dilution 6,400, bleed 3Y + 1
  ELISA absorbance of sera: 0.397 and 0.375
Bleed 3Y + 2 (1to1k), dilution 100, bleed 3Y + 2
  ELISA absorbance of sera: 1.608 and 1.586
Bleed 3Y + 2 (1to1k), dilution 200, bleed 3Y + 2
  ELISA absorbance of sera: 1.503 and 1.479
Bleed 3Y + 2 (1to1k), dilution 400, bleed 3Y + 2
  ELISA absorbance of sera: 1.384 and 1.401
Bleed 3Y + 2 (1to1k), dilution 800, bleed 3Y + 2
  ELISA absorbance of sera: 1.185 and 1.213
Bleed 3Y + 2 (1to1k), dilution 1,600, bleed 3Y + 2
  ELISA absorbance of sera: 0.961 and 0.959
Bleed 3Y + 2 (1to1k), dilution 3,200, bleed 3Y + 2
  ELISA absorbance of sera: 0.684 and 0.694
Bleed 3Y + 2 (1to1k), dilution 6,400, bleed 3Y + 2
  ELISA absorbance of sera: 0.462
Bleed 3Y + 3 (1to1k), dilution 100, bleed 3Y + 3
  ELISA absorbance of sera: 1.740 and 1.779
Bleed 3Y + 3 (1to1k), dilution 200, bleed 3Y + 3
  ELISA absorbance of sera: 1.596 and 1.638
Bleed 3Y + 3 (1to1k), dilution 400, bleed 3Y + 3
  ELISA absorbance of sera: 1.445 and 1.469
Bleed 3Y + 3 (1to1k), dilution 800, bleed 3Y + 3
  ELISA absorbance of sera: 1.181 and 1.217
Bleed 3Y + 3 (1to1k), dilution 1,600, bleed 3Y + 3
  ELISA absorbance of sera: 0.867 and 0.967
Bleed 3Y + 3 (1to1k), dilution 3,200, bleed 3Y + 3
  ELISA absorbance of sera: 0.621 and 0.629
Bleed 3Y + 3 (1to1k), dilution 6,400, bleed 3Y + 3
  ELISA absorbance of sera: 0.359
